{"source": "patent US20210251228A1", "about": "“METHODS FOR REPELLING DROSOPHILA SPECIES USING 2-PENTYLFURAN” (The United States of America, as represented by the …, priority 2020, published 2021)", "key": {"Drosophila suzukii": {"system": "Drosophila suzukii", "experiment": "Field test 2 with known 2-pentylfuran release rate: SWD infestation of field raspberries", "format": "in vivo", "settings": "14.18 mg/h from two sachets, 48 h, N=15", "procedure": "Field test 2 with known 2-pentylfuran release rate: We evaluated the effect of a known release rate of 2-pentylfuran on SWD infestation using 15 small plots of primocane raspberries (each plot=three 7 m rows of Heritage raspberries with 2.4 m between rows and with approximately 11 raspberries planted within each row) planted at different sites on research farms at Cornell AgriTech (plots separated by at least 0.5 km). The plantings were established in 2018 and the trial was conducted in the fall of 2019 as ripe raspberries were present along with high levels of SWD infestations in the area. At each plot we identified two fruiting canes (one for 2-pentylfuran treatment and one for control) that had large green fruit present separated by at least 3 m. After hand removal of any pink or ripe fruit, on 12 Sep. […] Ripe berries were removed from the canes, counted, weighed, placed in rearing cups (540 ml deli cups with approximately 1 cm of water agar at base with a perforated lid), and placed in a walk-in growth chamber (25° C., 55% r.h., 16:8 L:D) for 6 days at which time SWD were enumerated (mostly pupae, a few large larvae). Fruits from canes that were collected to estimate the background level of SWD infestation were evaluated for SWD infestation using the same method as for the canes used to test 2-pentylfuran. […]"}, "[1]": {"system": "Drosophila suzukii antennae", "experiment": "Coupled GC-EAD of bread dough headspace volatiles on SWD antennae", "settings": "adult female SWD antennae; adsorbent extract of bread dough; authentic standards 10 ng/μl", "procedure": "Adsorbent Sampling from Bread Dough: The bread dough bait consisted of whole-wheat flour (17.25 g), sugar (2 g), dry active bread yeast (0.325 g), apple cider vinegar (1 ml), and water (25 ml) (Cha, D. H., et al., J. Econ. Entomol., 111: 645-652 (2018a)). Headspace volatiles were collected from 10 g bread dough ball placed in a screened specimen cup (130 ml) by using 2.41 closed volatile collection chambers (ARS, Inc., Gainesville, Fla.) with one air inlet adapter (7 mm ID) on the top and an outlet adapter (7 mm ID) on the bottom wall. Clean air from a filtering and delivery system (ARS Inc., Gainesville, Fla.) was pushed into the chamber at 0.7 L/min through the top inlet port, and volatiles from the dough were pushed out through volatile traps (activated charcoal adsorbent filters, ORBO™32-small, Supelco Inc., Bellefonte, Pa.) on the bottom of the chamber. An additional ORBO™ filter was used to ensure that no breakthrough occurred. For each sample of dough (2 dough samples total), adsorbent collections were made over a 2-day period at room temperature using the same volatile trap. Volatiles were eluted with 600 μl methylene chloride every 24 h from the filters of a given dough sample and combined across the total of the collecting days (from 2 dough samples). The combined extract was kept at −20° C. and subjected to as chromatography-electroantennographic detection (GC-EAD) and gas chromatography-mass spectrometry (GC-MS) analyses.\nCoupled Gas Chromatographic-Electroantennographic Detection (GC-EAD): Coupled GC-EAD analysis was performed as described previously (Cha, D. H., J. Chem. Ecol., 34: 1180-1189 (2008); Cha, D. H., et al., J. Chem. Ecol., 38: 1419-1431 (2012)) using a Hewlett Packard 5890 Series II gas chromatograph equipped with either a non-polar DB-5 ms capillary column (30 m×0.25 mm ID, 0.25 μm film thickness; Agilent Technologies, Wilmington, Del.) or polar DB-WAXetr capillary column (30 m×0.25 mm ID, 0.25 μm film thickness; Agilent Technologies, Wilmington, Del.) in the splitless mode with 1 min sampling time. The oven temperature was programmed at 40° C. for 5 min, then increased by 15° C./min to 250° C., and held for 5 min. Injector and detector temperatures were set at 250° C. Nitrogen gas was the carrier at a flow of 2 ml/min. The column effluent was split 1:1 in the oven via a “Y” glass splitter (Supelco). One arm of the splitter led to the flame ionization detector (FID) (250° C.) and the other to the heated EAD port (250° C.). Whole head preparations were made of individual flies, age 5-9 day, for GC-EAD analysis (Cha et al. 2012). The head was separated from the body and its antennae positioned between two gold wire electrodes immersed in saline filled (Drosophila ringer solution; 46 mmol NaCl, 182 mmol KCl, 3 mmol CaCl2, and 10 mmol Tris HCl at pH 7.2) micropipettes in an acrylic holder. The antennal holder was placed inside a humidified condenser and maintained at 5° C. The output signal from the antenna was amplified by a customized high input impedance DC amplifier and recorded on an HP 3390A integrator.\nChemical Analysis: GC-MS was carried out with an Agilent 5975MS coupled with a Agilent 6890GC equipped with either a DB-5 ms capillary column (30 m×0.25 mm ID, 0.25 μm film thickness; Agilent Technologies, Wilmington, Del.) or DB-WAXetr capillary column (30 m×0.25 mm ID, 0.25 μm film thickness; Agilent Technologies, Wilmington, Del.). Helium was the carrier gas (1.0 ml/min constant flow). The GC temperature program was the same as used for the GC-EAD analyses. The MS transfer-line was held at 260° C., the MS source at 230° C., and the MS quad at 150° C. Mass spectra were taken in EI mode (at 70 eV) in the range from 40 m/z to 350 m/z with a scanning rate of 4.58 scan/s. GC-MS data were processed with the MDS-Chemstation software (Agilent Technologies). […]"}}}
{"smiles": "CCCCCc1ccco1", "note": "[2-pentylfuran]", "values": [{"measurement": "reduction of SWD infestation per berry relative to control", "setting": "Drosophila suzukii", "value": 56, "unit": "%"}, {"measurement": "GC-EAD activity (antennal response)", "setting": "[1]", "value": "active"}]}
